Data on one molecule can be found in patent US10894777B2, “TG2 inhibitor piperazine compounds and uses thereof” (UNIVERSITY OF OTTAWA, priority 2016, dated 2021).

The test system of test [1] is SCC-13 cells. As to the kind of experiment: Trypan Blue viability assay, SCC-13 spheroids. It counts as cell-based, human. The conditions noted are these: 0-20 μM, 0-72 hours. The protocol: Trypan Blue viability assay. SCC-13 cells were grown as spheroids in six well cluster dishes in spheroid medium for 8 days and then treated with 0-20 μM NC9. At 0, 24, 48, and 72 hours post-NC9 treatment, spheroids were counted, and all cells in the well were collected to prepare a single cell suspension in Hank's Balanced Salt Solution. Trypan Blue solution (0.5 mL, 0.4%) was added to a 15 mL conical tube with 0.3 mL of Hank's Balanced Salt Solution and 0.2 ml of cell suspension. After 10 min, 8 μL of the mixture was transferred to a hemocytometer to count viable and total cell number.

The next test concerns the target T1, TG3a (Homo sapiens, UniProt Q08188).
T1 construct: purchased Zedira
In words: Fluorescence isopeptidase activity assay (A101 probe), TG3a. Format: biochemical. As to the method:
Selectivity of certain irreversible inhibitors over other members of the transglutaminase family was assessed. […] Inhibitors were tested using a continuous colorimetric assay (Leblanc, A. et al., Biochemistry (2001), 40 (28): 8335-8342) for hTG1 and hTG6 and a commercially available continuous fluorescent assay that utilizes a peptidic FRET quenched substrate (Oertel, K. et al., Anal. Biochem. (2007), 367 (2): 152-158; Király, R. et al., Amino Acids (2016), 48 (1): 31-40) for the other transglutaminases, FXIIIa and hTG3. The rate constant of enzyme inactivation (kobs) for a specific concentration of inhibitor was obtained using Kitz and Wilson conditions (Kitz, R. et al., J. Biol. Chem. (1962), 237: 3245-49). Inhibitor concentrations were adjusted to account for competition with substrates in each enzymatic reaction.
Fluorescence isopeptidase activity assay. The isopeptidase activity of pre-activated TG3a and FXIIIa (purchased from Zedira) was measured via a fluorescence-based assay (Király, R. et al., Amino Acids (2016), 48 (1): 31-40) using the commercially available peptidic FRET quenched probe A101 from Zedira. Briefly, the final concentration in the reaction mixture contained 50 mM Tris (pH 7.0), 10 mM CaCl2, 100 mM NaCl, 2.8 mM TCEP, 50 μM A101 and 14 mM H-Gly-OMe. The reaction was monitored at 25° C. using a BioTek Synergy 4 plate reader (Ex/Em: 318/413 nm).

A further test has as its system procaspase 3. In words: Immunoblot of procaspase 3 cleavage, SCC-13 spheroids. Format: cell-based, human. The settings on record: 8 day spheroids, 20 μM. As to the method:
In (A), SCC-13 cells (40,000) were plated in non-adherent six well dishes, grown for 8 days in spheroid medium, and then NC9 was added and spheroid number was monitored at 0-48 hours. In (B), spheroids were grown for 10 days, treated for 48 hours with indicated level of NC9 and photographed. In (C), SCC-13 cells were plated at 40,000 cells per well in non-adherent six well dishes and after 10 days the spheroids were treated with 0-20 μM NC9 for 0-72 hours before trypan blue exclusion viability assay. In (D), SCC-13 spheroids were grown for 10 days, treated with 0 or 20 μM NC9 for 48 hours, and TG2 level was assayed by immunoblot. In (E), SCC-13 cells were grown as monolayers in spheroid medium and TG2 activity was monitored by FC incorporation assay as outlined in the Materials and Methods for Example 7. In (F), SCC-13 cell 8 day spheroids were treated with […] NC9 and cells were harvested at the indicated times for immunoblot detection of procaspase 3 and cleaved caspase 3. In all panels, the values are mean±SEM, n=3, p<0.05.
Background: In western blotting, separated proteins are transferred to a membrane and probed.

Test [2] has as its system shRNA-transduced U87, U251 and T98G cells. In words: Agarose colony formation assay, TG2 shRNA-transduced cells. It counts as cell-based, human. The conditions noted are these: 10 μM, 2 weeks. The protocol: Lentiviral vectors. Lentiviral knockdown vectors were prepared and used as previously described (Gundemir, S. et al., PLoS ONE 4(7):e6123, 2009; Barde, I. et al., Curr. Protoc. Neurosci. Chapter 4, Unit 4.21, 1-23, 2010).
Agarose colony formation assay. Agarose colony formation assay was conducted as described (Horman, S. R. et al., J. Biomol. Screen 18(10):1298-308, 2013; Zhang, K. et al., Tumour Biol. 35(3):2537-48, 2014) using 6-well plates and 5,000 cells in each well. 10 μM NC9 or DMSO was added to every layer at the start of the experiments. 2 mL liquid MEM containing 10 μM NC9 or DMSO was used to cover the agarose and it was changed 3 times a week. Colony growth was monitored every day and at the end of 10-15 days, the colonies were fixed with 4% paraformaldehyde, stained with 0.005% crystal violet, washed with PBS twice and 40 random pictures were taken from each treatment group. A person blinded for the treatments measured the area of the colonies using ImageJ program and the volumes were calculated from the area data under the assumption that the colonies are perfect spheres. The volumes were used to compare the effect of NC9 on colony growth.

Test [3] deals with SCC-13 cells. In words: EMT marker immunoblot, SCC-13 cells. Format: cell-based, human. The conditions noted are these: 20 μM, 48 h. As to the method: In (A), SCC-13 cells (500,000) were plated in monolayer culture in spheroid medium in 100 mm dishes. Fresh spheroid medium containing 0 or 20 μM NC9 was added at time zero and again at 24 h. After 48 h lysates were collected for electrophoresis and immunoblot. In (B), SCC-13 cells were pretreated with 0 or 20 μM NC9 for 2 h and then harvested and plated (25,000 cells) in the upper chamber in 1 mL of medium, above a matrigel-coated membrane, in a Millicell chamber. After 30 h. the inside of membrane was harvested and the nuclei of migrated cells on the bottom of the membrane were counted using an inverted fluorescent microscope. The values are mean±SEM, n=3 (p, 0.05). In (C), SCC-13 (2 million) cells were plated in spheroid medium in 100 mm dishes and grown as monolayer cultures. Confluent monolayers were then scratched with a 10-μL pipette tip and wound width was monitored for 0-18 h.
Immunoblot. […] Blots were rinsed and then incubated with secondary antibody (diluted 1:5000) for 2 h. Secondary antibody binding was visualized using ECL Prime chemiluminescence detection technology (Amersham).

Bounds are passed on as bounds.

T1 sequence (Q08188 2-467 limits assumed): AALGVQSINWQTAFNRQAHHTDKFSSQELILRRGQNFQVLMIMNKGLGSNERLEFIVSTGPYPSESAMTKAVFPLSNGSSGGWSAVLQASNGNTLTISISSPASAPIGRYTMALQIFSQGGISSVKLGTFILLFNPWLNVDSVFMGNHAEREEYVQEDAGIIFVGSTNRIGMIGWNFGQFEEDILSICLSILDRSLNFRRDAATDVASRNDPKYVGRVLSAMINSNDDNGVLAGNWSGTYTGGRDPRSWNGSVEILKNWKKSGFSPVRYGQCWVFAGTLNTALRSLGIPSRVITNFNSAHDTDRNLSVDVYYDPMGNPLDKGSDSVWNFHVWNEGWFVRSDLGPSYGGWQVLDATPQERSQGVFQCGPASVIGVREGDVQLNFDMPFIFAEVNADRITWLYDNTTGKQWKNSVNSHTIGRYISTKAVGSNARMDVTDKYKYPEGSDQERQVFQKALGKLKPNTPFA
T1 sequence (Q08188 468-693 partner limits assumed): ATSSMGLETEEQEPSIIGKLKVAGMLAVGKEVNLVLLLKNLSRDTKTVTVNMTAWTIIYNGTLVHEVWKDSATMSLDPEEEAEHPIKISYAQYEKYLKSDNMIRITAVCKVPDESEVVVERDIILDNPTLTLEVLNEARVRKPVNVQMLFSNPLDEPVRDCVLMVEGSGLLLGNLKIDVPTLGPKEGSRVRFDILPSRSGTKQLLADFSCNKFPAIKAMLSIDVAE

Consider `C=CC(=O)NCCCC[C@H](NC(=O)OCc1ccccc1)C(=O)NCCOCCOCCNS(=O)(=O)c1cccc2c(N(C)C)cccc12` [NC9], for which the “viable cell number (trypan blue exclusion)” value in the test with SCC-13 cells [1] is recorded as “concentration-dependent reduction in viable cell number”. The “kobs (10^−3 min^−1), TG3a” value at TG3a (Table 9, Kitz and Wilson conditions) is 1.01 ± 0.09 10^−3 min^−1. Further, the “selectivity towards hTG2 over hTG3a” value at TG3a (from kobs) was “about 390 fold”. Also, in the test with procaspase 3, the “time to initiation of procaspase 3 cleavage after addition” value was not above 1 h. In test [2], the “growth-retarding effect when TG2 expression is silenced” value is “completely lost”. For the same molecule, in the test on SCC-13 cells [3], the E-cadherin level entry is reported as “elevated”; the “EMT transcription factor and EMT marker levels” value is “reduced EMT transcription factor (Twist, Snail, Slug) and EMT marker (vimentin, fibronectin, N-cadherin, HIF-1α) levels”.
